According to publication PMC5564600 (Oncotarget, 2017):
Where two headings read alike, the source gives them in different places.

Experiments:
Assay in all cases: biochemical
Assay type in all cases: binding
panel of 442 kinases [1] = target: T1, panel of 442 kinases (Homo sapiens, UniProt P00519, Q252H); conditions: for remaining activity at 1 µM: read-out: % of control at 1 µM; for remaining activity at 10 µM: read-out: % of control at 10 µM
T1 construct: purchased Ambit Biosciences (scanMAXX KINOMEscan)

panel of 442 kinases [2] = target: T2, panel of 442 kinases (Homo sapiens, UniProt P12931); conditions: kinase SRC; for remaining activity at 1 µM: read-out: SRC (% of control at 1 µM)
T2 construct: purchased Ambit Biosciences (scanMAXX KINOMEscan)
T2 sequence (P12931 whole entry): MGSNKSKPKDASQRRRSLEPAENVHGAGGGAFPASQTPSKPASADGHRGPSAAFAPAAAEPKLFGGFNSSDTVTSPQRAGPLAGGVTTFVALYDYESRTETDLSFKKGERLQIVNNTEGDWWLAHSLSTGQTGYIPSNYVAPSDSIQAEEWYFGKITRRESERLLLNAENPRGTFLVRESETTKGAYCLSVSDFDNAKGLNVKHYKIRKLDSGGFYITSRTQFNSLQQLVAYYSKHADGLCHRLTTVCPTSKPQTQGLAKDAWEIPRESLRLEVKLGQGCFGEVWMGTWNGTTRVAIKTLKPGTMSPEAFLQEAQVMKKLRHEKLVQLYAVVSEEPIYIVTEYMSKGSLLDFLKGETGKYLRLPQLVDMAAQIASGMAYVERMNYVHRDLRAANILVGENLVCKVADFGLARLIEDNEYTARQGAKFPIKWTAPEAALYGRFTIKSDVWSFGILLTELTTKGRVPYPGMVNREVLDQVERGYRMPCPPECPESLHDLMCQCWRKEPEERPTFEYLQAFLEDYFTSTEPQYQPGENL

panel of 442 kinases [3] = target: T3, panel of 442 kinases (Homo sapiens, UniProt P14616); conditions: kinase INSRR; for remaining activity at 1 µM: read-out: % of control at 1 µM
T3 construct: purchased Ambit Biosciences (scanMAXX KINOMEscan)

panel of 442 kinases [4] = target: T4, panel of 442 kinases (Homo sapiens, UniProt P41743); conditions: kinase PRKCI; for remaining activity at 1 µM: read-out: PRKCI (% of control at 1 µM)
T4 construct: purchased Ambit Biosciences (scanMAXX KINOMEscan)
T4 sequence (P41743 1-596): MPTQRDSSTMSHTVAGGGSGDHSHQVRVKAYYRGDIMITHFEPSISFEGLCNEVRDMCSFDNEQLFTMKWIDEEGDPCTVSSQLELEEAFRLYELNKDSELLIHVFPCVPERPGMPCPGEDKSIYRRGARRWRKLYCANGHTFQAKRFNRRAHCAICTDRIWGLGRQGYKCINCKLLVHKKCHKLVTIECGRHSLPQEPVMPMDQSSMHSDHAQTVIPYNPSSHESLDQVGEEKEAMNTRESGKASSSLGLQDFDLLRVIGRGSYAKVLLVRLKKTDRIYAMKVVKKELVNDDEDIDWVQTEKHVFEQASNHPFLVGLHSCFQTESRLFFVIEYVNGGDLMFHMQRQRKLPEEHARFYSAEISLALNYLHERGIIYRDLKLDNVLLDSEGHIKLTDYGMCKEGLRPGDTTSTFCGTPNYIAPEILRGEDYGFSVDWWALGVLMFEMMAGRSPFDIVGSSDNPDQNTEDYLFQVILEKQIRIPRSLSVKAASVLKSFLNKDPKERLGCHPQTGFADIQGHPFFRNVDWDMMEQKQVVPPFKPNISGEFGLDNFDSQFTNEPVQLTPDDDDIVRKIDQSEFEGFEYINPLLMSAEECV

panel of 442 kinases [5] = target: T5, panel of 442 kinases (Homo sapiens, UniProt P52564); conditions: kinase MEK6; for remaining activity at 1 µM: read-out: % of control at 1 µM
T5 construct: purchased Ambit Biosciences (scanMAXX KINOMEscan)
T5 sequence (P52564 1-334): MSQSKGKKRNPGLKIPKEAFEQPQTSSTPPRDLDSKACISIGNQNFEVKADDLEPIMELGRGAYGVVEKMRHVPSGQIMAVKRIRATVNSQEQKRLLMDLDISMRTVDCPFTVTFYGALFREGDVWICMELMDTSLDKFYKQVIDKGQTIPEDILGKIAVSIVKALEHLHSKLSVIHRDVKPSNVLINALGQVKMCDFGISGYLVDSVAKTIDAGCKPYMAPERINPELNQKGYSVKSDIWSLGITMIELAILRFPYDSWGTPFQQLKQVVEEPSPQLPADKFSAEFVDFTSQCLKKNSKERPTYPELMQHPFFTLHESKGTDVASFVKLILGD

panel of 442 kinases [6] = target: T6, panel of 442 kinases (Homo sapiens, UniProt Q13233); conditions: kinase MAP3K1; for remaining activity at 1 µM: read-out: % of control at 1 µM
T6 construct: purchased Ambit Biosciences (scanMAXX KINOMEscan)
T6 sequence (Q13233 whole entry): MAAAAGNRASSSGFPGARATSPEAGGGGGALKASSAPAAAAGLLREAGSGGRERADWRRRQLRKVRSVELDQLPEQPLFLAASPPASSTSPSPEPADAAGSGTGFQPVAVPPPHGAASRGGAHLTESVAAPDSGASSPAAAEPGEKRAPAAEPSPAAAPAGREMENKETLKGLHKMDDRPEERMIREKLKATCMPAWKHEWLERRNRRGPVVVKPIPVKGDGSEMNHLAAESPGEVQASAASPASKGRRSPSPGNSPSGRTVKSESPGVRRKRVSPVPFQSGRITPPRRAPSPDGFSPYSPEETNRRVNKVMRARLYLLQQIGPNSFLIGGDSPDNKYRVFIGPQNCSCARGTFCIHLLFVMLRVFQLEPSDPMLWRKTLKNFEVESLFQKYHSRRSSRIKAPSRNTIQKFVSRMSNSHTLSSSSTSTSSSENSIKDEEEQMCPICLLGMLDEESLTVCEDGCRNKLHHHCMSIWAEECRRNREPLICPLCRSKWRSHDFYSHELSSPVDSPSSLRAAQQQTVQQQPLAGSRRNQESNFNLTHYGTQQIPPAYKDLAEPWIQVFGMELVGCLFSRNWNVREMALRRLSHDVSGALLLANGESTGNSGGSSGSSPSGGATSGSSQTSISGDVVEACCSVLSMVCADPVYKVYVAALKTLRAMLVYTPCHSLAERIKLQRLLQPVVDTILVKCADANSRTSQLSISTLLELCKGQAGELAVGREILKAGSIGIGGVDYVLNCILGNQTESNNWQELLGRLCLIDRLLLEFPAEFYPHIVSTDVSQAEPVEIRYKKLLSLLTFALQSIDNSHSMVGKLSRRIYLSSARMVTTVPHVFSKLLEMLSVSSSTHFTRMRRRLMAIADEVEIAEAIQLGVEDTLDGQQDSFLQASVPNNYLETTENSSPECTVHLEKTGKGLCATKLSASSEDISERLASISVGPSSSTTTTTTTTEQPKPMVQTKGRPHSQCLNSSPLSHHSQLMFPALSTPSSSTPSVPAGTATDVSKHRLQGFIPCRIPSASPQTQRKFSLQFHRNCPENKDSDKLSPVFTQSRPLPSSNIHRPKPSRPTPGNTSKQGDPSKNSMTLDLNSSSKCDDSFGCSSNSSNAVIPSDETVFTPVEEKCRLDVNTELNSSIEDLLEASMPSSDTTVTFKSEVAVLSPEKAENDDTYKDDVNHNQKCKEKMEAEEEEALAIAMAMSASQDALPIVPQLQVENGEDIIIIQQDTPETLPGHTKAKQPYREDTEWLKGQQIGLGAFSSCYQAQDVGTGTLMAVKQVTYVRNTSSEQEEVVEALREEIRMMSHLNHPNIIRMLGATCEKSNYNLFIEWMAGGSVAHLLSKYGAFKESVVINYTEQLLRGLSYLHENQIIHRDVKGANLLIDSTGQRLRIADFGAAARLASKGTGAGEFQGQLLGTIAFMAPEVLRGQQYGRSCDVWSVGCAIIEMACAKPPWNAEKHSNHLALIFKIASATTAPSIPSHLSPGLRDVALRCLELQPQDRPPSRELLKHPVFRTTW

panel of 442 kinases [7] = target: T7, panel of 442 kinases (Homo sapiens, UniProt Q16539); conditions: kinase p38-alpha; for remaining activity at 1 µM: read-out: % of control at 1 µM
T7 construct: purchased Ambit Biosciences (scanMAXX KINOMEscan)
T7 sequence (Q16539 whole entry): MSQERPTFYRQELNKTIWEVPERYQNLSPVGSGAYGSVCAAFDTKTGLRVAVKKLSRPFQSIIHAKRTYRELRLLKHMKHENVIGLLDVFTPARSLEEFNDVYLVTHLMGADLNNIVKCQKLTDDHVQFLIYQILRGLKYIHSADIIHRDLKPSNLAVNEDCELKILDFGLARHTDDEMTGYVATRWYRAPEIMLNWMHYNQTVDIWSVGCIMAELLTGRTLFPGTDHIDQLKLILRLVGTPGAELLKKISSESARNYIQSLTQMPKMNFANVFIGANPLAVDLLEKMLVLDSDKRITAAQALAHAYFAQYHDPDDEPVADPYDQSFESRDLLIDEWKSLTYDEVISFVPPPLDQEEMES

panel of 442 kinases [8] = target: T8, panel of 442 kinases (Homo sapiens, UniProt Q56UN5); conditions: kinase YSK4; for remaining activity at 1 µM: read-out: YSK4 (% of control at 1 µM)
T8 construct: purchased Ambit Biosciences (scanMAXX KINOMEscan)
T8 sequence (Q56UN5 1-1328): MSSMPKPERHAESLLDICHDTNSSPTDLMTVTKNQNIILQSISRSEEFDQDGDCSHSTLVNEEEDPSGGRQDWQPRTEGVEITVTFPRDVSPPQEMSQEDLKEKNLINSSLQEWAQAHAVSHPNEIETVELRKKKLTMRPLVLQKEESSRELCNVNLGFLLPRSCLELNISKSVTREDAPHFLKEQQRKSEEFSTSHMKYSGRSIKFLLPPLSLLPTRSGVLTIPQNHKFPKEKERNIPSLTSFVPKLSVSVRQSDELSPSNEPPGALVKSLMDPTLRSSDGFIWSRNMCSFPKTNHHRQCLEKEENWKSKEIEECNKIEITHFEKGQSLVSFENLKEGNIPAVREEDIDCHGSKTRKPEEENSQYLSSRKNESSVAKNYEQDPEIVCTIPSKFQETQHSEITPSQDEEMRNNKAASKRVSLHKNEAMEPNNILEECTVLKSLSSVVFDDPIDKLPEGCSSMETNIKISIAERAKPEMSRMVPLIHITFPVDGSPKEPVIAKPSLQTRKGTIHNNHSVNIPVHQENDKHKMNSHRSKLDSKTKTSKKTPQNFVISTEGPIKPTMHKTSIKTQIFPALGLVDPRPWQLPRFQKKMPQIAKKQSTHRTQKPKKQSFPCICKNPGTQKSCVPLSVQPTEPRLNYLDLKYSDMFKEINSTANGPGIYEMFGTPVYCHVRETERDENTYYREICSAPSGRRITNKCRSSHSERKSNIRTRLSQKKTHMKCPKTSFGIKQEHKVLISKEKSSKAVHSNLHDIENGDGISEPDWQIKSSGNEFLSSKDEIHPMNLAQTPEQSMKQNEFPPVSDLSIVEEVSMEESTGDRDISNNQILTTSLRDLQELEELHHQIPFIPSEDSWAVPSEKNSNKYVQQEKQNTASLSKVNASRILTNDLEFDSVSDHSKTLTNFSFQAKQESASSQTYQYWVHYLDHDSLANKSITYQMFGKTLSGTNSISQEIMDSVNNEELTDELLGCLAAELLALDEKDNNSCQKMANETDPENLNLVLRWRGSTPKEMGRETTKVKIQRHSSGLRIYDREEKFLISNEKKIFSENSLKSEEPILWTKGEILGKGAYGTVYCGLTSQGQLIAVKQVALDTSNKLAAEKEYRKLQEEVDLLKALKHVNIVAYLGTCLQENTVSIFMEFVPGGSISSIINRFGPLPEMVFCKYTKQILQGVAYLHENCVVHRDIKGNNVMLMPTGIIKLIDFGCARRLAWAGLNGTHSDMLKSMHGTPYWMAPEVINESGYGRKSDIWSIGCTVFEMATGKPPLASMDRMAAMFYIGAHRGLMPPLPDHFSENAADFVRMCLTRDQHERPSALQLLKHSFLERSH

panel of 442 kinases [9] = target: T9, panel of 442 kinases (Homo sapiens, UniProt Q9UM73); conditions: ALK; for remaining activity at 1 µM: read-out: % of control at 1 µM
T9 construct: purchased Ambit Biosciences (scanMAXX KINOMEscan)
T9 sequence (Q9UM73 19-1620): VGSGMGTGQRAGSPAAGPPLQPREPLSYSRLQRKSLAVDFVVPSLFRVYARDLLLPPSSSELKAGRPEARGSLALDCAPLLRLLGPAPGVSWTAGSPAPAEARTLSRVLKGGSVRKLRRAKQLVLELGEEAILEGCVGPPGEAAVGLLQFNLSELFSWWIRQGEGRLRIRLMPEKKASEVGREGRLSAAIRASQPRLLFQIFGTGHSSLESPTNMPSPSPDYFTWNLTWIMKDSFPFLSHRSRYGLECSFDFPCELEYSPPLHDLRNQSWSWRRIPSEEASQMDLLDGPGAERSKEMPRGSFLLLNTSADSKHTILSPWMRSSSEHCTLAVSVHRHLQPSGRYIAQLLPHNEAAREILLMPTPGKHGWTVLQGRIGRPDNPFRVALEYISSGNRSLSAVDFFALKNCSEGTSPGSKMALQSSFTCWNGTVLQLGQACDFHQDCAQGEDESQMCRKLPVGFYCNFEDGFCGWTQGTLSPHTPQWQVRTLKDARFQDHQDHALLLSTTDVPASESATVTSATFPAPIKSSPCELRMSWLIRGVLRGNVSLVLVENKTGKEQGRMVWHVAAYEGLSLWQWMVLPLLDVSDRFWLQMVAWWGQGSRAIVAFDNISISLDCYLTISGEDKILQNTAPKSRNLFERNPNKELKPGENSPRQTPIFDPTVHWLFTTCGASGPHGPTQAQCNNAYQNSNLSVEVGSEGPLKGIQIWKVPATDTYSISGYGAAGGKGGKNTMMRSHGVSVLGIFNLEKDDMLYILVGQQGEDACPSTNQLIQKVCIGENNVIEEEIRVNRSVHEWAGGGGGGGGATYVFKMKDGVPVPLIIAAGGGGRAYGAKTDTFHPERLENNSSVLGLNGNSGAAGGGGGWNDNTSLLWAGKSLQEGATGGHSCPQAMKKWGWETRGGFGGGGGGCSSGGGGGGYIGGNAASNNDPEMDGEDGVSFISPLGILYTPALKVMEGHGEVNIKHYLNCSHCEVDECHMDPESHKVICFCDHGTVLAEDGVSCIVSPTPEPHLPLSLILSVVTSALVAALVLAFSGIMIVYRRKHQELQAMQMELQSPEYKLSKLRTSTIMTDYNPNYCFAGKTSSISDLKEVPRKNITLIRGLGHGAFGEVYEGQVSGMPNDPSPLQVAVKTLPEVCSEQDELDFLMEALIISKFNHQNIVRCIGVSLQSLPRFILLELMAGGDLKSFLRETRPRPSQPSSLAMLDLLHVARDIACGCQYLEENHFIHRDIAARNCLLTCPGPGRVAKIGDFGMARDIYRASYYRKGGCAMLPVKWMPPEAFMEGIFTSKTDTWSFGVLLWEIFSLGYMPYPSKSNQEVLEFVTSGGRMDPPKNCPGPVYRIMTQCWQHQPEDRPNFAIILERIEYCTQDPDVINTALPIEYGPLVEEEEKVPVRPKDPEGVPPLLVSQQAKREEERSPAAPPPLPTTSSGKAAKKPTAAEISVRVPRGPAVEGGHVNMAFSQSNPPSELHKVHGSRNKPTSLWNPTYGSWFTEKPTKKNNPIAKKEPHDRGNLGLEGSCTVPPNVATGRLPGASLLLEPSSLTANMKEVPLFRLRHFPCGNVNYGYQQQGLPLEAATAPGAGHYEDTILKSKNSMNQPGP

[10] = 10 µM, read-out: % of control at 10 µM

Compound | remaining activity at 1 µM (panel of 442 kinases [1]; ABL1(Q252H)-nonphosphorylated) [%] | remaining activity at 10 µM (panel of 442 kinases [1]; ABL1(Q252H)-nonphosphorylated) [%] | remaining activity at 1 µM (panel of 442 kinases [1]; ABL1(Q252H)-phosphorylated) [%] | remaining activity at 10 µM (panel of 442 kinases [1]; ABL1(Q252H)-phosphorylated) [%] | remaining activity at 1 µM (panel of 442 kinases [2]) [%] | remaining activity at 10 µM (panel of 442 kinases [2]; 10 µM, read-out: SRC (% of control at 10 µM)) [%] | remaining activity at 1 µM (panel of 442 kinases [3]) [%] | remaining activity at 10 µM (panel of 442 kinases [3]; [10]) [%] | remaining activity at 1 µM (panel of 442 kinases [4]) [%] | remaining activity at 10 µM (panel of 442 kinases [4]; 10 µM, read-out: PRKCI (% of control at 10 µM)) [%] | remaining activity at 1 µM (panel of 442 kinases [5]) [%] | remaining activity at 10 µM (panel of 442 kinases [5]; [10]) [%] | remaining activity at 1 µM (panel of 442 kinases [6]) [%] | remaining activity at 10 µM (panel of 442 kinases [6]; [10]) [%] | remaining activity at 1 µM (panel of 442 kinases [7]) [%] | remaining activity at 10 µM (panel of 442 kinases [7]; [10]) [%] | remaining activity at 1 µM (panel of 442 kinases [8]) [%] | remaining activity at 10 µM (panel of 442 kinases [8]; 10 µM, read-out: YSK4 (% of control at 10 µM)) [%] | remaining activity at 1 µM (panel of 442 kinases [9]) [%] | remaining activity at 10 µM (panel of 442 kinases [9]; [10]) [%]
Nc1cc(C(F)(F)F)c(-c2cc(N3CCOCC3)nc(N3CCOCC3)n2)cn1 [Buparlisib] | 100 | 100 | 72 | 100 | 94 | 100 | 100 | 100 | 90 | 100 | 90 | 85 | 100 | 100 | 87 | 100 | 72 | 78 | 100 | 100
Cn1c(=O)n(-c2ccc(C(C)(C)C#N)cc2)c2c3cc(-c4cnc5ccccc5c4)ccc3ncc21 [Dactolisib, 2-methyl-2-[4-(3-methyl-2-oxo-8-quinolin-3-yl-2,3-dihydroimidazo[4,5-c]quinolin-1-yl)-phenyl] propionitrile] | 57 |  | 59 |  | 94 |  | 100 |  | 86 |  | 96 |  | 100 |  | 87 |  | 28 |  | 72 | 
COc1ncc(-c2ccc3nccc(-c4ccnnc4)c3c2)cc1NS(=O)(=O)c1ccc(F)cc1F [Omipalisib] | 100 |  | 100 |  | 100 |  | 93 |  | 100 |  | 51 |  | 100 |  | 97 |  | 77 |  | 100 | 
FC(F)c1nc2ccccc2n1-c1nc(N2CCOCC2)nc(N2CCOCC2)n1 [ZSTK474, 2-(difluoromethyl)-1-[4,6-di(4-morpholinyl)-1,3,5-triazin-2-yl]-1H-benzimidazole] | 100 |  | 100 |  | 100 |  | 88 |  | 100 |  | 97 |  | 100 |  | 100 |  | 100 |  | 93 | 
